Laboratory results from patent publication US9446127B2, “Compositions including androgen receptor degradation (ARD) enhancers and methods of prophylactic or therapeutic treatment of skin disorders and hair loss” (AndroScience Corporation, priority 2007, dated 2016).

Assays:
[1] = tested on: LNCaP cells; assay: LNCaP cell growth assay (cell count); assay type: cell-based, human; conditions: 5 μM
Description: LNCaP cells express an endogenous mutant AR that is found in prostate cancer patients. This clinically relevant cell model was used to study ASC-J9's effect in suppressing prostate cancer cell growth. Cells were plated, at a density of approximate 6.5×10^4 cells/well, into 6-well tissue culture dishes. Two days later, the complete medium was aspired and 10% charcoal/dextran-treated (hormone depleted) serum-containing medium was added. Test compound, ASC-J9 was then added to the medium at a final concentration of 5 μM with or without 1 nM of DHT. For vehicle control, the same amount of DMSO was added into the medium. For the subsequent 5 days, the medium was aspired once per day, and replaced with fresh medium containing test compound and/or DHT. At designated times, a portion of cells was harvested by trypsinization, and cell count was performed using a hemacytometer.

[2] = tested on: sebaceous glands; assay: Reduction of sebaceous glands in Fuzzy rats, topical cream; assay type: in vivo
Description: Topical creams were prepared as later described in EXAMPLE 12. […] The test or control creams were applied using a cotton swab to the dorsal skin of the animal, once daily, over a period of 8 weeks. Animals were then sacrificed and skin samples collected for microscopic examination. Commercial hair remover was applied to the dorsal surface of the euthanized animals. After 5 minutes, the hair remover and hairs were removed with a tissue. The area was thoroughly cleaned with 75% isopropyl alcohol. A 4-millimeter skin punch was used to remove skin tissue samples, which were incubated for 2 to 3 hours in a ethylenediaminetetraacetate (EDTA, 17 millimolar), sodium phosphate (0.1 molar, pH 7.4) solution at 37 degrees Celsius. The epidermis was carefully separated from the dermis and stored in 10% phosphate-buffered formalin. Prior to microscopic examination, the samples were mounted on glass slides. Areas of well-preserved glandular lobules were selected for microscopic imaging. Edges of the glandular lobes were traced and the areas of the traced lobes obtained with Image J software (National Institutes of Health).

SMILES: COc1ccc(C=CC(=O)C=C(O)C=Cc2ccc(OC)c(OC)c2)cc1OC [ASC-J9, 5-hydroxy-1,7-bis(3,4-dimethoxyphenyl)-1,4,6-heptatrien-3-one]
- LNCaP cell growth in the presence of DHT ([1]; 1 nM DHT, 5 days): good potency to decrease LNCaP cell growth
- viable cells ([1]; end of 5-day incubation): only a minimal number of viable cells
- cell number per well ([1]; without DHT, starting from Day 2, vs vehicle control): marked decrease in cell number
- size of ducts of sebaceous glands ([2]; male Fuzzy rats, topical (FIG. 10E), comparable to castration, better than flutamide): significantly reduced the size of ducts
- size of the sebaceous gland ([2]; male rats, topical, 200 μM (FIG. 10A-C), not to the extent caused by castration): significant reduction in the size of the sebaceous gland
- time to reduction of brown skin color and bands of sebaceous glands ([2]; topical cream 25 micromolar, once daily): 4-5 weeks
- size of the sebaceous glandular lobe ([2]; topical, various concentrations (FIG. 10D), less than castration, better than flutamide): significant reduction in the size of the sebaceous glandular lobe
